Measurements reported in ChEMBL document CHEMBL1201862, “PubChem BioAssay data set” (2004).
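96-well plates; 48 h exposure; 5 concentrations. Endpoints by linear interpolation between flanking doses. Not reached: highest tested concentration assigned. The concentration for 50% growth inhibition is given as GI50.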 Calls of active or inactive are those of the source. Cut-off read from the data, not from the text of the source: active = GI50 up to about 1.1 µM and inactive = higher.

Experiments:
Assay in all cases: DTP human tumour cell line panel, 48 h
SNB-19 = tested on: SNB-19
786-0 = tested on: 786-0
OVCAR-4 = tested on: OVCAR-4
OVCAR-3 = tested on: OVCAR-3
SK-MEL-5 = tested on: SK-MEL-5
HL-60 = tested on: HL-60
M14 = tested on: M14
PC-3 = tested on: PC-3
NCI/ADR-RES = tested on: NCI/ADR-RES
NCI-H460 = tested on: NCI-H460
DU-145 = tested on: DU-145
HOP-62 = tested on: HOP-62
MDA-N = tested on: MDA-N
SK-MEL-2 = tested on: SK-MEL-2
ACHN = tested on: ACHN
SN12C = tested on: SN12C
SK-OV-3 = tested on: SK-OV-3

CC(=O)c1ccc(N2CCN(C3=C(Cl)C(=O)c4c(O)ccc(O)c4C3=O)CC2)cc1 was tested, and the GI50 (SNB-19) was 20.7 µM (inactive), the GI50 (786-0) was 14.2 µM (inactive) and the GI50 (OVCAR-4) was 3.14 µM (inactive). The GI50 (OVCAR-3) was 5.19 µM (inactive), the GI50 (SK-MEL-5) was 5.73 µM (inactive) and the GI50 (HL-60) was 0.271 µM (active). For the same compound, the GI50 (M14) was 2.21 µM (inactive), the GI50 (PC-3) was 5.64 µM (inactive) and the GI50 (NCI/ADR-RES) was 9.1 µM (inactive). The GI50 (NCI-H460) was 16.8 µM (inactive), the GI50 (DU-145) was 17.1 µM (inactive) and the GI50 (HOP-62) was 8.95 µM (inactive). The GI50 (MDA-N) was 3.24 µM (inactive).
For Cn1ccnc1CC(C)(O)c1ccccc1 (configuration not stated), the GI50 (SNB-19) was > 100 µM (inactive), the GI50 (SK-MEL-2) was > 100 µM (inactive) and the GI50 (786-0) was > 100 µM (inactive). For the same compound, the GI50 (OVCAR-4) was > 100 µM (inactive), the GI50 (OVCAR-3) was > 100 µM (inactive) and the GI50 (ACHN) was > 100 µM (inactive). For the same compound, the GI50 (SK-MEL-5) was > 100 µM (inactive), the GI50 (SN12C) was > 100 µM (inactive) and the GI50 (M14) was > 100 µM (inactive). The GI50 (PC-3) was > 100 µM (inactive), the GI50 (SK-OV-3) was > 100 µM (inactive) and the GI50 (NCI/ADR-RES) was > 100 µM (inactive). For the same compound, the GI50 (NCI-H460) was > 100 µM (inactive), the GI50 (DU-145) was > 100 µM (inactive) and the GI50 (HOP-62) was > 100 µM (inactive). The GI50 (MDA-N) was > 100 µM (inactive).
In the case of CC(C)(C)/C(O)=C\c1nc2ccc(C(F)(F)F)cc2[nH]c1=O, the GI50 (SNB-19) is reported as > 100 µM (inactive), the GI50 (SK-MEL-2) is reported as > 100 µM (inactive) and the GI50 (786-0) is reported as > 100 µM (inactive). For the same compound, the GI50 (OVCAR-4) was > 100 µM (inactive), the GI50 (OVCAR-3) was > 100 µM (inactive) and the GI50 (ACHN) was > 100 µM (inactive). The GI50 (SK-MEL-5) was > 100 µM (inactive), the GI50 (SN12C) was > 100 µM (inactive) and the GI50 (M14) was > 100 µM (inactive). For the same compound, the GI50 (PC-3) was > 100 µM (inactive), the GI50 (SK-OV-3) was > 100 µM (inactive) and the GI50 (NCI/ADR-RES) was > 100 µM (inactive). The GI50 (DU-145) was > 100 µM (inactive), the GI50 (HOP-62) was > 100 µM (inactive) and the GI50 (MDA-N) was > 100 µM (inactive).
In the case of O=C1C[C@@H](c2ccccc2)O[C@@H](c2ccccc2)C1, the GI50 (SNB-19) is reported as > 100 µM (inactive), the GI50 (SK-MEL-2) is reported as > 100 µM (inactive) and the GI50 (786-0) is reported as > 100 µM (inactive). For the same compound, the GI50 (OVCAR-4) was > 100 µM (inactive), the GI50 (OVCAR-3) was > 100 µM (inactive) and the GI50 (SK-MEL-5) was > 100 µM (inactive). The GI50 (SN12C) was 84.7 µM (inactive), the GI50 (M14) was > 100 µM (inactive) and the GI50 (PC-3) was > 100 µM (inactive). The GI50 (SK-OV-3) was > 100 µM (inactive), the GI50 (NCI/ADR-RES) was > 100 µM (inactive) and the GI50 (NCI-H460) was > 100 µM (inactive). For the same compound, the GI50 (DU-145) was > 100 µM (inactive), the GI50 (HOP-62) was > 100 µM (inactive) and the GI50 (MDA-N) was 58.6 µM (inactive).
For CCOC(=O)[C@@]12C3C=CC(CC3)[C@]1(C(=O)c1ccccc1)C(=O)C(=O)N2c1ccccc1 (some centres not stated), the GI50 (SNB-19) was > 100 µM (inactive), the GI50 (SK-MEL-2) was > 100 µM (inactive) and the GI50 (786-0) was > 100 µM (inactive). The GI50 (OVCAR-4) was > 100 µM (inactive), the GI50 (OVCAR-3) was > 100 µM (inactive) and the GI50 (ACHN) was > 100 µM (inactive). For the same compound, the GI50 (SK-MEL-5) was > 100 µM (inactive), the GI50 (SN12C) was > 100 µM (inactive) and the GI50 (M14) was > 100 µM (inactive). For the same compound, the GI50 (PC-3) was > 100 µM (inactive), the GI50 (SK-OV-3) was > 100 µM (inactive) and the GI50 (NCI/ADR-RES) was > 100 µM (inactive). For the same compound, the GI50 (NCI-H460) was > 100 µM (inactive), the GI50 (DU-145) was > 100 µM (inactive) and the GI50 (HOP-62) was > 100 µM (inactive). For the same compound, the GI50 (MDA-N) was > 100 µM (inactive).
CCCc1c(OC)c(=O)c2c(O)cc(OC)c3c4c(OC)cc(O)c5c(=O)c(OC)c(CCC)c(c1c23)c54 was tested, and the GI50 (SNB-19) was 4.32 µM (inactive), the GI50 (SK-MEL-2) was 6.64 µM (inactive) and the GI50 (786-0) was 2.84 µM (inactive). The GI50 (OVCAR-4) was 3.72 µM (inactive), the GI50 (OVCAR-3) was 3.47 µM (inactive) and the GI50 (ACHN) was 4.51 µM (inactive). For the same compound, the GI50 (SK-MEL-5) was 3.29 µM (inactive), the GI50 (SN12C) was 3.15 µM (inactive) and the GI50 (M14) was 2.05 µM (inactive). For the same compound, the GI50 (PC-3) was 2.44 µM (inactive), the GI50 (SK-OV-3) was 9.77 µM (inactive) and the GI50 (NCI/ADR-RES) was 5.26 µM (inactive). For the same compound, the GI50 (NCI-H460) was 3.16 µM (inactive), the GI50 (DU-145) was 3.76 µM (inactive) and the GI50 (HOP-62) was 6.47 µM (inactive). For the same compound, the GI50 (MDA-N) was 4.05 µM (inactive).
For COC(OC)C1OCC(n2cc(F)c(=O)[nH]c2=O)C1O (configuration not stated), the GI50 (SNB-19) was > 100 µM (inactive), the GI50 (SK-MEL-2) was > 100 µM (inactive) and the GI50 (786-0) was > 100 µM (inactive). The GI50 (OVCAR-4) was > 100 µM (inactive), the GI50 (OVCAR-3) was > 100 µM (inactive) and the GI50 (ACHN) was > 100 µM (inactive). For the same compound, the GI50 (SK-MEL-5) was > 100 µM (inactive), the GI50 (SN12C) was > 100 µM (inactive) and the GI50 (M14) was > 100 µM (inactive). For the same compound, the GI50 (PC-3) was > 100 µM (inactive), the GI50 (SK-OV-3) was > 100 µM (inactive) and the GI50 (NCI/ADR-RES) was > 100 µM (inactive). For the same compound, the GI50 (NCI-H460) was > 100 µM (inactive), the GI50 (DU-145) was > 100 µM (inactive) and the GI50 (HOP-62) was > 100 µM (inactive). The GI50 (MDA-N) was > 100 µM (inactive).
